Molecular target: T1, PhzO (Pseudomonas chlororaphis, UniProt E3UVD3)
T1 construct: full-length phzO (1476-bp PCR fragment, about 491 residues) in pET28a, 6-His tag, E. coli BL21, Ni-NTA purified
T1 sequence (E3UVD3 1-491): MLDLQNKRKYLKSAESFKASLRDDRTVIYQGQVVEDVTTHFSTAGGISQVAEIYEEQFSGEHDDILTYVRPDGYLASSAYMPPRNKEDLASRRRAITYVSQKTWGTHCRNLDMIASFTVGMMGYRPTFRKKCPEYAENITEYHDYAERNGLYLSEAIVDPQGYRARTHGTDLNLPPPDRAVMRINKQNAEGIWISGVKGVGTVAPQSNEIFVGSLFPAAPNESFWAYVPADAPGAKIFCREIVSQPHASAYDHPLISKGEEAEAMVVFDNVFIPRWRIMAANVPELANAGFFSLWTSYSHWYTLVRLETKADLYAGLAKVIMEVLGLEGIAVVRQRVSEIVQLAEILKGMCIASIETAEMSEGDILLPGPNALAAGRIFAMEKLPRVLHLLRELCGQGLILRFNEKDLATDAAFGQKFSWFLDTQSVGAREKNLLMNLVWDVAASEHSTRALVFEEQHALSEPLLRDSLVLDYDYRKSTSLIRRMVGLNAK
Experiment: HPLC detection of 2-OH-PCA and 2-OH-PHZ
Format: biochemical
Conditions: NADP(H), 1 mM Fe3+, PCA 200 mg/L, 0.1 M Tris-HCl; results call the enzyme purified, methods describe crude E. coli extract

SMILES: O=C(O)c1cccc2nc3ccccc3nc12 [PCA, phenazine-1-carboxylic acid]
- HPLC detection of 2-OH-PCA and 2-OH-PHZ: PhzO was sufficient to hydroxylate PCA to produce 2-OH-PHZ in the presence of NADP(H)
